In one assay the target is FAAH (Mus musculus (Mouse), UniProt O08914). The assay can be described thus: In vitro competitive activity-based protein profiling, FAAH (mouse). Format: biochemical. Conditions: for inhibition at 1 µM: read-out: FAAH % inh. 1 μM (mouse). Put shortly: (§1)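 Proteomes at 1.0 mg/mL protein (mouse brain membranes or cell lysates; human prefrontal cortex or cell membranes) preincubated with inhibitor 30 min at 37 °C. Then FP-Rh or HT-01 probe (50 μM stock) added for 30 min at 37 °C. MAGL and FAAH activity measured by SDS-PAGE band fluorescence.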
Chain of FAAH (O08914 whole entry): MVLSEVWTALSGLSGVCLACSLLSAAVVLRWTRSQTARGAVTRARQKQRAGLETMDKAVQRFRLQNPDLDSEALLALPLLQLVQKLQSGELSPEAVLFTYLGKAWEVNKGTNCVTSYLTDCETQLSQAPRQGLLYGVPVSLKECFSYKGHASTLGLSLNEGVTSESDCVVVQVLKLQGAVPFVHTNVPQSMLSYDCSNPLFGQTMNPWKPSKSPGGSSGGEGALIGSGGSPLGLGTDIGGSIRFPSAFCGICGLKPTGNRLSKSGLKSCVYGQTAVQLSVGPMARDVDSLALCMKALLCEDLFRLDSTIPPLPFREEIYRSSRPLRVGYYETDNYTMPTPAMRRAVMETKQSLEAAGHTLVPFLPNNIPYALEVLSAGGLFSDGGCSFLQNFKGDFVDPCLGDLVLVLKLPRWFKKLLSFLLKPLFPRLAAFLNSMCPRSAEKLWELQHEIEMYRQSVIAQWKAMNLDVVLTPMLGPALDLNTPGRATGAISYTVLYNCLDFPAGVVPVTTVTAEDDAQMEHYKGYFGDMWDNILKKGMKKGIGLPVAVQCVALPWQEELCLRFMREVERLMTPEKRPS

A further assay addresses MAGL (Mus musculus (Mouse), UniProt O35678). As to the kind of experiment: In vitro competitive activity-based protein profiling, MAGL (mouse). The assay is classed as biochemical. The note with it: for inhibition at 1 µM: read-out: MAGL % inh. 1 μM (mouse). The procedure, abridged: as §1

The structures appear in SMILES notation. Some results are limits rather than exact numbers.

Chain of MAGL (O35678 whole entry): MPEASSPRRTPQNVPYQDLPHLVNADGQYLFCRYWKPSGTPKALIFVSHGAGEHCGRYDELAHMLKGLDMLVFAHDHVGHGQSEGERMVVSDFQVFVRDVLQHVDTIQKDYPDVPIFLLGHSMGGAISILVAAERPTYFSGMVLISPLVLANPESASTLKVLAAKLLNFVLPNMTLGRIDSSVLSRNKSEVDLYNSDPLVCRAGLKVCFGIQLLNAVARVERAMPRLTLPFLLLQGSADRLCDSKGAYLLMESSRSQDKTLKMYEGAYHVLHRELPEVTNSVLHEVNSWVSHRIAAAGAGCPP

Usually IC50 stands for the concentration at which inhibition is half-maximal. Lower therefore signals greater potency in that assay. As to `CN(c1cnn(C(=O)N2CCN(Cc3ccc(C(F)(F)F)cc3N3CCCC3)CC2)c1)S(C)(=O)=O` [Example 218, N-methyl-N-(1-(4-(2-(pyrrolidin-1-yl)-4-(trifluoromethyl)benzyl)piperazine-1-carbonyl)-1H-pyrazol-4-yl)methanesulfonamide], the IC50 on FAAH lay in the range of 1000 to 10000 nM; at MAGL, 100 to 1000 nM. Further, the values for the inhibition at 1 µM on FAAH (1 μM) and at MAGL (1 μM) were 25 to 50% and not below 75%, respectively.

As for `COc1cc(-c2ccccc2)ccc1CN1CCN(C(=O)n2cc(NS(C)(=O)=O)cn2)CC1` [Example 220, N-(1-(4-((3-methoxy-[1,1′-biphenyl]-4-yl)methyl)piperazine-1-carbonyl)-1H-pyrazol-4-yl)methanesulfonamide], the IC50 at FAAH is not above 100 nM; on MAGL, 100 to 1000 nM. The inhibition at 1 µM at FAAH (1 μM) and at MAGL (1 μM) was not below 75% each time.

Take `CS(=O)(=O)Nc1cnn(C(=O)N2CCN(Cc3ccc(-c4ccccc4)cc3Cl)CC2)c1` [Example 221, N-(1-(4-((3-chloro-[1,1′-biphenyl]-4-yl)methyl)piperazine-1-carbonyl)-1H-pyrazol-4-yl)methanesulfonamide]: the IC50 at FAAH is not above 100 nM; at MAGL, 100 to 1000 nM. Also, the inhibition at 1 µM on FAAH (1 μM) and on MAGL (1 μM) was not below 75% each time.

With `CC(=O)N(C)c1cnn(C(=O)N2CC3CN(Cc4ccc(-c5ccccc5)cc4C)CC3C2)c1` (stereo not shown) [Example 223, N-methyl-N-(1-(5-((3-methyl-[1,1′-biphenyl]-4-yl)methyl)octahydropyrrolo[3,4-c]pyrrole-2-carbonyl)-1H-pyrazol-4-yl)acetamide], the IC50 on FAAH and on MAGL was not above 100 nM each time. Moreover, the inhibition at 1 µM on FAAH (1 μM) and at MAGL (1 μM) was not below 75% throughout.

On to `CS(=O)(=O)Nc1cnn(C(=O)N2CCN(Cc3ccc(-c4ccccc4)cc3OCc3ccccc3)CC2)c1` [Example 224, N-(1-(4-((3-(benzyloxy)-[1,1′-biphenyl]-4-yl)methyl)piperazine-1-carbonyl)-1H-pyrazol-4-yl)methanesulfonamide], for which the inhibition at 1 µM at FAAH (1 μM) was 50 to 75%; on MAGL (1 μM) it was not below 75%.

For the compound `CC(=O)N(C)c1cnn(C(=O)N2CCC3(CC2)CN(Cc2ccc(-c4ccccc4)cc2C)C3)c1` [Example 226, N-methyl-N-(1-(2-((3-methyl-[1,1-biphenyl]-4-yl)methyl)-2,7-diazaspiro[3.5]nonane-7-carbonyl)-1H-pyrazol-4-yl)acetamide], the figures for the IC50 at FAAH and at MAGL were 100 to 1000 nM and not above 100 nM, respectively. The inhibition at 1 µM at FAAH (1 μM) and at MAGL (1 μM) was not below 75% in each case.

With `CC(=O)Nc1cnn(C(=O)N2CCN(Cc3cc(N4CCCC4)cc(C(F)(F)F)c3)CC2)c1` [Example 227], the IC50 at FAAH and at MAGL was 100 to 1000 nM in each case. The “FAAH % inh. 1 μM (mouse)” value at FAAH (1 μM) was “B (B = % inhibition greater than or equal to 50% and less than 75%)”. In addition, the “MAGL % inh. 1 μM (mouse)” value on MAGL (1 μM) was “A (A = % inhibition greater than or equal to 75%)”.

On to `CC(=O)Nc1cnn(C(=O)N2CCN(Cc3ccc(C(F)(F)F)cc3N3C4CCC3COC4)CC2)c1` [Example 228, N-(1-(4-(2-(3-oxa-8-azabicyclo[3.2.1]octan-8-yl)-4-(trifluoromethyl)benzyl)piperazine-1-carbonyl)-1H-pyrazol-4-yl)acetamide], for which the IC50 at FAAH lay within 1000 to 10000 nM; on MAGL, 100 to 1000 nM. Also, the inhibition at 1 µM at FAAH (1 μM) is 0 to 25%; at MAGL (1 μM), not below 75%.

For `CC(=O)N(C)c1cnn(C(=O)N2CC3(CCN(Cc4cccc(Oc5ccccc5)c4)CC3)C2)c1` [Example 229, N-methyl-N-(1-(7-(3-phenoxybenzyl)-2,7-diazaspiro[3.5]nonane-2-carbonyl)-1H-pyrazol-4-yl)acetamide], the IC50 on FAAH was not above 100 nM; at MAGL it was 1000 to 10000 nM. The inhibition at 1 µM was not below 75% at FAAH (1 μM) and 50 to 75% on MAGL (1 μM).

For the compound `CC(=O)N(C)c1cnn(C(=O)N2CC3(CCN(Cc4ccc(CN5CCOCC5)cc4)CC3)C2)c1` [Example 230, N-methyl-N-(1-(7-(4-(morpholinomethyl)benzyl)-2,7-diazaspiro[3.5]nonane-2-carbonyl)-1H-pyrazol-4-yl)acetamide], the inhibition at 1 µM at FAAH (1 μM) lay in the range of 0 to 25%; at MAGL (1 μM), 25 to 50%.

On to `CC(=O)N(C)c1cnn(C(=O)N2CCC3(CCN(Cc4ccc(-c5ccccc5)cc4C)C3)C2)c1` (stereo not shown) [Example 232, N-methyl-N-(1-(7-((3-methyl-[1,1′-biphenyl]-4-yl)methyl)-2,7-diazaspiro[4.4]nonane-2-carbonyl)-1H-pyrazol-4-yl)acetamide], for which the IC50 on FAAH and at MAGL was not above 100 nM each time. Also, the inhibition at 1 µM on FAAH (1 μM) and at MAGL (1 μM) was not below 75% each time.

With `CC(=O)N(C)c1cnn(C(=O)N2CCC3(CC2)CN(Cc2ccc(CN4CCOCC4)cc2)C3)c1` [Example 233, N-methyl-N-(1-(2-(4-(morpholinomethyl)benzyl)-2,7-diazaspiro[3.5]nonane-7-carbonyl)-1H-pyrazol-4-yl)acetamide], the inhibition at 1 µM at FAAH (1 μM) lay within 0 to 25%; on MAGL (1 μM), 50 to 75%.

As for `CC(=O)N(C)c1cnn(C(=O)N2CC3CN(Cc4cccc(Oc5ccccc5)c4)CC3C2)c1` (stereo not shown) [Example 234, N-methyl-N-(1-(5-(3-phenoxybenzyl)octahydropyrrolo[3,4-c]pyrrole-2-carbonyl)-1H-pyrazol-4-yl)acetamide], the IC50 on FAAH and at MAGL was not above 100 nM throughout. In addition, the inhibition at 1 µM on FAAH (1 μM) and at MAGL (1 μM) was not below 75% throughout.

For `CC(=O)N(C)c1cnn(C(=O)N2CCC3(CC2)CN(Cc2cccc(Oc4ccccc4)c2)C3)c1` [Example 235, N-methyl-N-(1-(2-(3-phenoxybenzyl)-2,7-diazaspiro[3.5]nonane-7-carbonyl)-1H-pyrazol-4-yl)acetamide], the IC50 at FAAH and at MAGL was not above 100 nM throughout. The inhibition at 1 µM on FAAH (1 μM) and at MAGL (1 μM) was not below 75% in each case.

As for `CC(=O)N(C)c1cnn(C(=O)N2CC3CN(Cc4cccc(Oc5ccc(Cl)cc5)c4)CC3C2)c1` (stereo not shown) [Example 237, N-(1-(5-(3-(4-chlorophenoxy)benzyl)octahydropyrrolo [3,4-c]pyrrole-2-carbonyl)-1H-pyrazol-4-yl)-N-methylacetamide], the IC50 at FAAH and at MAGL was not above 100 nM throughout. Moreover, the inhibition at 1 µM on FAAH (1 μM) and on MAGL (1 μM) was not below 75% each time.

Take `CC(=O)N(C)c1cnn(C(=O)N2CC3CN(Cc4cccc(Oc5ccccn5)c4)CC3C2)c1` (stereo not shown) [Example 238, N-methyl-N-(1-(5-(3-(pyridin-2-yloxy)benzyl)octahydropyrrolo[3,4-c]pyrrole-2-carbonyl)-1H-pyrazol-4-yl)acetamide]: the inhibition at 1 µM on FAAH (1 μM) and at MAGL (1 μM) was not below 75% in each case. Also, the IC50 on MAGL was 100 to 1000 nM.

For the compound `CC(=O)N(C)c1cnn(C(=O)N2CC3CN(Cc4cccc(OCc5ccccc5)c4)CC3C2)c1` (stereo not shown) [Example 239, N-(1-(5-(3-(benzyloxy)benzyl)octahydropyrrolo[3,4-c]pyrrole-2-carbonyl)-1H-pyrazol-4-yl)-N-methylacetamide], the IC50 at FAAH and on MAGL was not above 100 nM each time. Moreover, the inhibition at 1 µM on FAAH (1 μM) and at MAGL (1 μM) was not below 75% in each case.

The values above are taken from patent US10323038B2, “Pyrazole compounds and methods of making and using same” (ABIDE THERAPEUTICS, INC., priority 2015, dated 2019).
